Read-outs that look alike come from different tables or passages of the source.
Key:
mPGES-1 Mouse enzyme = molecular target: T1, mPGES-1 Mouse enzyme (Mus musculus, UniProt Q9JM51); experiment: mPGES-1 enzyme activity assay (PGE2 enzyme immunoassay), mouse enzyme; type: biochemical; conditions: for IC50: recombinant microsomal enzyme, means ± SD, triplicate; for inhibition at 10 µM: compound at a concentration of 10 μM, read-out: % inhibition of the compound against mPGES-1, Mouse enzyme
T1 construct: made in house; host or cells: FreeStyle 293-F cells, crude microsomal preparation
T1 sequence (Q9JM51 1-153): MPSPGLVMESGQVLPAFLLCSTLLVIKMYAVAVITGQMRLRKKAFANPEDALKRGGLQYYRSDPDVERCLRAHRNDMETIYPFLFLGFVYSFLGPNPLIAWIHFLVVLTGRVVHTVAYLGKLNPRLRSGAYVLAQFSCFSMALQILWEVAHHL
Method: (§1) Studies were conducted to characterize the inhibitory activity against recombinant mPGES-1 of the compounds synthesized in accordance with Examples 1-4, and disclosed herein.
(§2) Briefly, FreeStyle 293-F cells were cultured following manufacturer's manual in FreeStyle 293 expression medium on orbit rotate shaker in 8% CO2 incubator at 37° C. Cells were transfected with 1.5 μg/mL of mPGES-1/pcDNA3 construct using FreeStyle Max reagent at a cell density of 1×10^6 for 2 days. Transfected cells were collected, washed, and sonicated in TSES buffer (15 mM Tris-HCl, pH 8.0 plus 0.25 M sucrose, 0.1 mM EDTA and 1 mM DTT) on ice. The broken cells were first centrifuged at 12,500×g for 10 min. The supernatant was further centrifuged at 105,000×g for 1 hr at 4° C. The pellet was washed and homogenized in PBS buffer. The crude microsomal mPGES-1 preparation was aliquoted and stored at −80° C. The crude protein concentration was 8 mg/mL.
(§3) The enzyme activity assays were performed on ice in 1.5 ml microfuge tubes by using the expressed mPGES-1. The reaction mixture contained: 0.2 M Na2HPO4/NaH2PO4, pH 7.2, 10 μL; 0.1 M GSH, 2.5 μL; diluted microsomal enzyme (80 μg/mL), 1 μL; PGH2 (0.31 mM in DMF), 5 μL; 1 μL inhibitor; and H2O in a final reaction volume of 100 μL. PGH2 was stored in dry ice and used to initiate the reaction.
(§4) Compounds were incubated with the enzyme for 15 min at room temperature before the addition of cold PGH2 (1 μM final) to initiate the enzyme reaction. After 30 s, 10 μL of SnCl2 (40 mg/mL) in ethanol was added to stop the reaction. The nonenzymatic conversion of PGH2 to PGE2 was performed in the same buffer devoid of enzyme. The reaction mixture was placed on ice until PGE2 production was determined by the PGE2 enzyme immunoassay as described earlier. IC50 values of the inhibitors were calculated by using the GraphPad Prism 4.0 program. The results are set forth in the tables provided in Examples 7-10.

mPGES-1 = molecular target: T2, mPGES-1 (Homo sapiens, UniProt O14684); experiment: mPGES-1 enzyme activity assay (PGE2 enzyme immunoassay), human enzyme; type: biochemical; parameters: made in house; host or cells: FreeStyle 293-F cells, crude microsomal preparation; conditions: recombinant microsomal enzyme, means ± SD, triplicate
T2 sequence (O14684 1-152): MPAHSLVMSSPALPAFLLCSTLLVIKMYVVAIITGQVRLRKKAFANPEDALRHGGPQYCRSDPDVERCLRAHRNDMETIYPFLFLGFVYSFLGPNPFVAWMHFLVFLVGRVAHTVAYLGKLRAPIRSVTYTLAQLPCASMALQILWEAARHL
Method: as §1, §2, §3, §4

[1] = read-out: IC50 against mPGES-1, Mouse enzyme
[2] = read-out: IC50 against mPGES-1, Human enzyme
[3] = IC50 against mPGES-1, Mouse enzyme
[4] = IC50 against mPGES-1, Human enzyme

Row | Compound | IC50 (mPGES-1 Mouse enzyme; [1]) [nM] | IC50 (mPGES-1; [2]) [nM] | IC50 (mPGES-1 Mouse enzyme; [3]) [nM] | inhibition at 10 µM (mPGES-1 Mouse enzyme) [%] | IC50 (mPGES-1; [4]) [nM]
1 | CCCCCCCCCCOc1ccc(/C=C(\C#N)C(=O)O)cc1OC [Compound V-27] | 390 ± 84 | 51 ± 10 | – | – | –
2 | CCCCOc1ccc(-c2nn(-c3ccccc3)cc2C=C2C(=O)NC(=O)NC2=O)cc1 [VI-02] | – | 212 ± 34 | 2570 ± 628 | – | –
3 | CCCCCCCCOc1ccc(-c2nn(-c3ccccc3)cc2/C=C(/C#N)C(=O)O)cc1 [VII-16] | – | 209 ± 42 | – | 46 | –
4 | O=C(O)CN1C(=O)S/C(=C2\C(=O)N(CCCC3CCCCC3)c3ccc(-c4ccccc4)cc32)C1=O [II-25] | 1220 ± 430 | 16 ± 4 | – | – | –
5 | O=C(O)CN1C(=O)S/C(=C2\C(=O)N(CC3CCCCC3)c3ccc(-c4ccc5ccccc5c4)cc32)C1=O [II-20] | 244 ± 31 | 531 ± 90 | – | – | –
6 | CN1C(=O)C(=Cc2ccc(OCCCCC3CCCCC3)c(Br)c2)C(=O)N(C)C1=O [Compound I-19] | – | – | – | 24 | 427 ± 55
7 | O=C1NC(=O)/C(=C2/C(=O)N(CCCC3CCCCC3)c3ccccc32)S1 [II-28] | – | 1390 ± 273 | – | 0 | –
8 | O=C(O)CN1C(=O)S/C(=C2\C(=O)N(CC3CCCCC3)c3ccc(-c4ccccc4)cc32)C1=O [II-18] | 394 ± 58 | 221 ± 47 | – | – | –
9 | CCCCCCCCCCOc1ccc(-c2nn(-c3ccccc3)cc2C=C2C(=O)NC(=O)NC2=O)cc1 [VI-07] | – | – | – | 21 | 375 ± 127
10 | O=C1NC(=O)C(=Cc2cc(Cl)ccc2OCCCCC2CCCCC2)C(=O)N1 [Compound I-13] | – | 87 ± 27 | – | 28 | –
11 | CCCCCCCOc1ccc(C=C(C#N)C#N)cc1OC [Compound V-35] | 7290 ± 2550 | 256 ± 33 | – | – | –
12 | O=C(O)CN1C(=O)S/C(=C2\C(=O)Nc3ccc(-c4ccccc4)cc32)C1=O [II-23] | – | 8020 ± 1050 | – | 63 | –
13 | CCCCCCCCCCCCCCCCCCOc1c(Br)cc(C=C(C#N)C#N)cc1OC [Compound V-20] | 270 ± 64 | 50 ± 9 | – | – | –
14 | CCCCOc1ccc(C=C(C#N)C#N)cc1OC [Compound V-22] | 1770 ± 241 | 348 ± 100 | – | – | –
15 | O=C1NC(=O)C(=Cc2ccc(OCCCCC3CCCCC3)c(O)c2)C(=O)N1 [Compound I-05] | – | – | 2900 ± 293 | – | 116 ± 17
16 | CCCCCCCCOc1ccc(-c2nn(-c3ccc(Cl)cc3)cc2/C=C(/C#N)C(=O)O)cc1 [VII-17] | – | 90 ± 15 | – | 29 | –
17 | O=C1NC(=O)C(=Cc2cn(-c3ccccc3)nc2-c2ccc(OCc3ccccc3)cc2)C(=O)N1 [VI-09] | – | – | – | 0 | 598 ± 142
18 | CCCCCCCCOc1c(Br)cc(C=C(C#N)C#N)cc1OC [Compound V-18] | 572 ± 83 | 74 ± 8 | – | – | –
19 | CCCCCCCCOc1ccc(C=C(C#N)C#N)cc1[N+](=O)[O-] [Compound V-06] | 716 ± 120 | 89 ± 12 | – | – | –
20 | COc1cc(C=C2C(=O)NC(=O)NC2=O)cc(I)c1OCCCCC1CCCCC1 [Compound I-11] | – | – | 359 ± 50 | – | 54 ± 12
21 | CCCCCCCCCCN1C(=O)/C(=C2\SC(=O)N(CC(=O)O)C2=O)c2ccccc21 [II-17] | 935 ± 135 | 217 ± 30 | – | – | –
22 | O=C(CCCN1C(=O)C=CC1=O)Nc1ccc2c(c1)Cc1ccccc1-2 [III-01] | – | 1920 ± 300 | – | 48 | –
23 | CCCCOc1ccc(-c2nn(-c3ccc(Cl)cc3)cc2C=C2C(=O)NC(=S)NC2=O)cc1 [VI-12] | – | 56 ± 10 | 445 ± 83 | – | –
24 | CCCCCCOc1c(Br)cc(C=C(C#N)C#N)cc1OC [Compound V-13] | 1630 ± 250 | 181 ± 33 | – | – | –
25 | O=C1NC(=O)C(=Cc2cc(I)ccc2OCCCCC2CCCCC2)C(=O)N1 [Compound I-15] | – | – | 12100 ± 1960 | – | 135 ± 18
26 | CCCCCCCCCCOc1ccc(-c2nn(-c3ccc(Cl)cc3)cc2/C=C(/C#N)C(=O)O)cc1 [VII-19] | – | 97 ± 15 | – | 4.6 | –

Source: patent US12030877B2, “Prostaglandin E synthase inhibitors and methods for utilizing the same” (University of Kentucky Research Foundation, priority 2016, dated 2024)
